From patent US5478807A, “Use of relaxin in the treatment of bradycardia” (Genentech, Inc., priority 1992, dated 1995)
Where “and” joins values, the source holds several entries; their conditions need not be identical. Identical values can stand only once.

Columns and labels:
[1] = Continuous subcutaneous infusion in female SHR and SD rats, uterine weight; assay type: in vivo, rat; settings: continuous s.c. infusion 1 or 10 ng/min
Experimental: Groups (4 to 9 animals in each group) of conscious, non-pregnant, Spontaneously Hypertensive (SHR) and Sprague-Dawley (SD) female rats weighing about 144-385 g each, were used in this experiment. The rats were anesthetized with ketamine hydrochloride (150 mg/kg) in order to cannulate the left iliac artery and to implant an osmotic pump. All surgery was performed under aseptic conditions. Stretched PE 50 tubing was fitted with an injection cap and flushed with heparinized saline, routed subcutaneously, exteriorized between the capsulae, and passed through a spring tether that is anchored to the skin with a nylon button. Extreme care was taken in cannulating the left iliac artery to avoid damage to collateral circulation and local innervation. An (Alzet) osmotic pump filled with relaxin or vehicle was then inserted into a subcutaneous pocket caudal to the exit point of the cannula.
All wounds were closed with suture, infiltrated with Xylocaine and coated with Betadine. […] Arterial pressure, heart rate, water intake, urine volume and vascular blood volume were measured daily throughout the duration of the experiments.
Arterial pressure and heart rate were measured directly through the arterial cannulae with standard pressure transducers (Stoelting) and strain gauge amplifiers (Stoelting). […]

[2] = system: primary human uterine cell line; assay: cAMP bioassay in primary human uterine cell line; assay type: cell-based
Experimental: The phosphorylated relaxin was assayed for its ability to increase cAMP levels in a primary human uterine cell line. The procedure of Kramer et al. [Kramer et al., In Vitro Cell, Dev, Biol. 26, 647-656 (1990)] was modified and carried out as follows: human uterine cells at passage 15-22 were grown to confluency in Ham's F12/DMEM (1/1, v/v) medium supplemented with 10% heat-inactivated newborn calf serum, 100 unites/ml penicillin, 100 μg/ml streptomycin, 2 mM glutamine and 24 mMHEPES, pH 7.4. Cells were plated into 6-well culture plates at 10^5 cells/well and incubated overnight at 37° C. and 5% CO2 in air. The cells (at 60-80% confluency) were then washed twice with F12/DMEM-24 mMHEPES, pH 7.4 (buffer B) at room temp. […] Aliquots of the extracts were then neutralized with 0.1 N NaOH and cAMP levels were measured in a radioimmunoassay. The assay was based on the competition between cAMP and a fixed quantity of ^125 I-labeled cAMP (Du Pont) for binding to a goat anti-cAMP antibody (Cambridge). […] The radioactivity in the pellet was measured in a gamma counter, and the amount of cAMP in the samples was determined by comparison with a standard cAMP curve. A relaxin standard curve was constructed in which the cAMP concentrations (pmol/ml) determined in the radioimmunoassay were plotted as a function of stimulating relaxin concentrations (ng/ml). […]

left atrium = assay: Left atrial contraction, isolated electrically paced left atrium; parameters: species or system rat; settings: for left atrium contractile force % Δ, mean (X): mean of four left atria; for left atrium contractile force % Δ: single experiment
Experimental: Krebs-Henseleit solution was prepared with the following composition (in millimoles): NaCl 118; KCl 4.7; MgSO4 1.64; NaHCO3 24.88; KH2 PO4 1.18; d-glucose 11.1; bubbled with 95% O2 /5% CO2; CaCl2 2.52.
Human (H2) relaxin (hRLx-2, 1.5 mg/ml; Genentech) was diluted fresh daily to desired concentrations (500:1; 5000:1; 50000:1) in Krebs-Henseleit solution.
Male Wistar rats (Charles River) weighing 475-525 g each, were anesthetized with sodium pentobarbital (60 mg/kg). After thoracotomy, the heart was removed rapidly and placed in cold (4° C.) Krebs-Henseleit solution until spontaneous contractions ceased. The right and left atria were excised.
Tissue was bathed in an organ chamber holding 42 ml Krebs-Henseleit solution that was aerated with 95% O2 /5% CO2 and heated to 37° C. with a temperature controlled water jacket. Tissue contractions were measured with force-displacement transducers (Grass FT 0.3) and recorded on chart paper (Grass moled 79 polygraph). The rates of contractions were determined with a cardiotachometer (Grass). Electrical stimulation of tissue was induced through bipolar clip electrodes connected to a stimulator through a stimulus isolation unit (Grass model S48).
A stainless steel clip was attached to the distal end of the left atrium and the proximal end was attached to a bipolar electrode. The electrode assembly was secured within the organ chamber and the upper clip was attached to the force-displacement transducer. The position of the transducer was adjusted to yield 1.0 g resting tension. The left atrium was stimulated at 3Hz at 1.5×threshold. The duration (3 msec) and intensity of the pulses (1.5-3.0 Volts) were kept constant throughout an experiment.
In all experiments the atria were allowed to stabilize for 30 minutes prior to addition of drugs. […] Thus, cumulative dose-response curves were generated. At 10 minute intervals, relaxin was added to each organ chamber to obtain bath concentrations of 100 pg/ml, 300 pg/ml, 1 ng/ml, 3 ng/ml, 10 ng/ml and 30 ng/ml.
Measurement of contraction rate and force of contraction following each dose of relaxin were obtained after responses reached a steady state. Rate was determined directly from the output of the cardiotachometer. Force of contraction was measured as the magnitude of the contractile twitches. In order to adjust for variations between tissues, data are expressed as percent changes from pre-drug values, as means±standard errors. Measurements of rate were obtained in seven right atria; measurement of contractile force were obtained in four left atria.

relaxin
uterine weight [1]: increased uterine weights
biological activity [2]: biologically active
left atrium contractile force % Δ, mean (X) (left atrium; 100 pg): -6%
left atrium contractile force % Δ (left atrium; 100 pg, change from pre-drug value): -12% and -5% and -4% and -3%
left atrium contractile force % Δ, mean (X) (left atrium; 300 pg): -9.5%
left atrium contractile force % Δ, mean (X) (left atrium; 1 ng): 1.0%
left atrium contractile force % Δ, mean (X) (left atrium; 3 ng): 14.3%
left atrium contractile force % Δ, mean (X) (left atrium; 10 ng): 30%
left atrium contractile force % Δ (left atrium; 10 ng): 22% and 38% and 40% and 20%
left atrium contractile force % Δ, mean (X) (left atrium; 30 ng): 37.8%
peak decrease in contractile force (left atrium; at 300 pg/ml): 10%
peak increase in contractile force (left atrium; at 30 ng/ml): 38%
point of half maximal increase in contractile force (left atrium; left atrium): about 4.8 ng/ml
